Patent publication US10508115B2, “Toll-like receptor 7 (TLR7) agonists having heteroatom-linked aromatic moieties, conjugates thereof, and methods and uses therefor” (BRISTOL-MYERS SQUIBB COMPANY, priority 2017, dated 2019)

Assays:
human TLR7 = human TLR7 (Homo sapiens (Human), UniProt Q9NYK1); assay: HEK-Blue TLR7 reporter assay (TLR7 agonist activity); type: cell-based; details: HEK-Blue TLR7 cells, SEAP reporter, 18 h treatment; read-out: TLR7 Agonism (EC50)
Protocol: This example describes a method for assaying TLR7 agonist activity of the compounds disclosed in this specification.
HEK-Blue™ TLR7 cells were added to each well of a 384-well tissue-culture plate (15,000 cells per well) and incubated 16-18 h at 37° C., 5% CO2. Compounds (100 nl) were dispensed into wells containing the HEK-Blue™ TLR cells and the treated cells were incubated at 37° C., 5% CO2. After 18 h treatment ten microliters of freshly-prepared Quanti-Blue™ reagent (Invivogen) was added to each well, incubated for 30 min (37° C., 5% CO2) and SEAP levels measured using an Envision plate reader (OD=620 nm).

interleukin 6 (IL-6) = assay: Interleukin 6 induction assay in human whole blood; type: cell-based; details: 37° C. for 20 h, AlphaLISA, read-out: IL6 Induction (EC50)
Protocol: This example describes a method for assaying interleukin 6 induction by compounds disclosed in this specification.
Compounds diluted in DMSO were transferred to individual wells of a Matrix Technologies clear, V-bottom 384-well plate using ECHO acoustic liquid handling technology (25 nL per well). Human whole-blood samples (25 uL) were added to each well using a CyBio FeliX liquid handling instrument. The plate was shaken on a plate shaker for three min before incubating the reaction mixtures at 37° C. for 20 h. Basel RPMI 1640 medium (supplemented with L-glutamine) was then added to each well (25 uL per well) prior to liberating plasma from each sample by centrifugation (450×g, 5 min, ambient temperature). Treated plasma samples (3 uL) were subsequently transferred to individual wells of a white, shallow, 384-well ProxiPlate (Perkin Elmer) using the FeliX liquid handling instrument and their interleukin 6 levels were measured using AlphaLISA technology as described by the manufacturer, PerkinElmer. Data analyses software was used to determine compound EC50 values where the baseline was established using average DMSO values and 100% induction established using reference compound values at the highest concentration tested. EC50's can be determined with software such as Graphpad Prism™.

IFN-α = details: fold less potent than corresponding purine-8-one compound; cited from earlier work

Chain of human TLR7 (Q9NYK1 27-1049): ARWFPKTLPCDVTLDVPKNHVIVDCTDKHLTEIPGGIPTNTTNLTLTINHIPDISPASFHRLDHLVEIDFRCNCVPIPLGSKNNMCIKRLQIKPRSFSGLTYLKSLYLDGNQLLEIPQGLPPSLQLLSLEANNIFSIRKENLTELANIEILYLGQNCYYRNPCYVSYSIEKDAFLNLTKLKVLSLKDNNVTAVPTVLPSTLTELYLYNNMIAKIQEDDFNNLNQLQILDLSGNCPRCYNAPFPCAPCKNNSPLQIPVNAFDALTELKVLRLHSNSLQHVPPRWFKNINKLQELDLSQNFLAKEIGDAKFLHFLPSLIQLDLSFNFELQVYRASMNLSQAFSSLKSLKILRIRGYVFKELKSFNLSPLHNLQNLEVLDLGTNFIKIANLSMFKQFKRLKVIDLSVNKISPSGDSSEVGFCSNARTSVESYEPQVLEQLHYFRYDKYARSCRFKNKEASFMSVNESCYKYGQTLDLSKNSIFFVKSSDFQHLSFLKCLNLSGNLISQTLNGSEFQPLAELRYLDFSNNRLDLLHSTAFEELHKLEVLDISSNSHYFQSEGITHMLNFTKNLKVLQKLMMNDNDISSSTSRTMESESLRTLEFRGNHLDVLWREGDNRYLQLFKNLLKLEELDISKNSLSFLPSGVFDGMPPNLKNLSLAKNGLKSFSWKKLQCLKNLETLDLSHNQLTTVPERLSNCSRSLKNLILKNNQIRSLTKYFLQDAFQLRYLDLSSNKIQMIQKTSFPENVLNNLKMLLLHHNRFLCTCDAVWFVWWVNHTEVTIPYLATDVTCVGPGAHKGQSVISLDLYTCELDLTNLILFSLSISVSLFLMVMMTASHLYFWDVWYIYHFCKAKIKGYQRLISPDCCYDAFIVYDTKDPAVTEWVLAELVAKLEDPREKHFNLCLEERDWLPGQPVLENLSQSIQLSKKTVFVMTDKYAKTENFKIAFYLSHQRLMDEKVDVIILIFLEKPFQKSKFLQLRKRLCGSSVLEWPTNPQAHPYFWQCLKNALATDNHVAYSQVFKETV

| EC50 (human TLR7) | EC50 (interleukin 6 (IL-6)) | SMILES | potency less than that of the corresponding purine-8-one compound, as measured by IFN-α induction (IFN-α) |
| --- | --- | --- | --- |
| 113 nM | – | CCCCOc1nc(N)c2nc(O)n(Cc3cccc(Oc4cccc(CNC5CCOCC5)c4)c3)c2n1 [IIa-04] | – |
| 431 nM | – | CCCCOc1nc(N)c2nc(O)n(Cc3cccc(Oc4cccc(CNCc5ccncc5)c4)c3)c2n1 [IIa-11] | – |
| 14 nM | 506 nM | CCCCOc1nc(N)c2nc(O)n(Cc3ccc(Oc4ccc(CO)cc4)cc3)c2n1 [Ia-01] | – |
| 1.3 nM | – | CCCCOc1nc(N)c2nc(O)n(Cc3ccc(Oc4ccc(CNC)cc4)cc3)c2n1 [Ia-02] | – |
| – | 17.6 nM | CCCCOc1nc(N)c2nc(O)n(Cc3ccc(Oc4ccc(CNC5CC5)cc4)cc3)c2n1 [Ia-03] | – |
| – | 10.4 nM | CCCCOc1nc(N)c2nc(O)n(Cc3ccc(Oc4ccc(CNC5CCC5)cc4)cc3)c2n1 [Ia-04] | – |
| – | 31 nM | CCCCOc1nc(N)c2nc(O)n(Cc3ccc(Oc4ccc(CNC5COC5)cc4)cc3)c2n1 [Ia-05] | – |
| – | 17.3 nM | CCCCOc1nc(N)c2nc(O)n(Cc3ccc(Oc4ccc(CNCCO)cc4)cc3)c2n1 [Ia-06] | – |
| 1.3 nM | 6.62 nM | CCCCOc1nc(N)c2nc(O)n(Cc3ccc(Oc4ccc(CNCCOC)cc4)cc3)c2n1 [Ia-07] | – |
| – | 24.3 nM | CCCCOc1nc(N)c2nc(O)n(Cc3ccc(Oc4ccc(CNCc5ccccc5)cc4)cc3)c2n1 [Ia-08] | – |
| – | 104 nM | CCCCOc1nc(N)c2nc(O)n(Cc3ccc(Oc4ccc(CO)cc4)nc3)c2n1 [Ib-01] | – |
| – | 29.6 nM | CCCCOc1nc(N)c2nc(O)n(Cc3ccc(Oc4ccc(CNC)cc4)nc3)c2n1 [Ib-02] | – |
| – | 7.5 nM | CCCCOc1nc(N)c2nc(O)n(Cc3ccc(Oc4ccc(CNC(C)C)cc4)nc3)c2n1 [Ib-03] | – |
| – | 9.57 nM | CCCCOc1nc(N)c2nc(O)n(Cc3ccc(Oc4ccc(CNC5COC5)cc4)nc3)c2n1 [Ib-05] | – |
| 0.91 nM | 10.7 nM | CCCCOc1nc(N)c2nc(O)n(Cc3ccc(Oc4ccc(CNCCO)cc4)nc3)c2n1 [Ib-06] | – |
| 0.62 nM | 5.81 nM | CCCCOc1nc(N)c2nc(O)n(Cc3ccc(Oc4ccc(CNCCOC)cc4)nc3)c2n1 [Ib-07] | – |
| – | 5.91 nM | CCCCOc1nc(N)c2nc(O)n(Cc3ccc(Oc4ccc(CNC5C6CC5C6)cc4)nc3)c2n1 (stereo not drawn) [Ib-09] | – |
| – | 14.3 nM | CCCCOc1nc(N)c2nc(O)n(Cc3ccc(Oc4ccc(CNC5CC(F)(F)C5)cc4)nc3)c2n1 [Ib-10] | – |
| – | 8.14 nM | CCCCOc1nc(N)c2nc(O)n(Cc3ccc(Oc4ccc(CNC5CCCC5)cc4)nc3)c2n1 [Ib-11] | – |
| – | 3.77 nM | CCCCOc1nc(N)c2nc(O)n(Cc3ccc(Oc4ccc(CNCC(C)C)cc4)nc3)c2n1 [Ib-12] | – |

| EC50 (human TLR7) | EC50 (interleukin 6 (IL-6)) | SMILES | potency less than that of the corresponding purine-8-one compound, as measured by IFN-α induction (IFN-α) |
| --- | --- | --- | --- |
| – | 30.9 nM | CCCCOc1nc(N)c2nc(O)n(Cc3ccc(Oc4ccc(CNCC(F)F)cc4)nc3)c2n1 [Ib-13] | – |
| – | 18.9 nM | CCCCOc1nc(N)c2nc(O)n(Cc3ccc(Oc4ccc(CNCCS(C)(=O)=O)cc4)nc3)c2n1 [Ib-14] | – |
| – | 64.7 nM | CCCCOc1nc(N)c2nc(O)n(Cc3ccc(Oc4ccc(CNCC5CC5)cc4)nc3)c2n1 [Ib-15] | – |
| – | 84.8 nM | CCCCOc1nc(N)c2nc(O)n(Cc3ccc(Oc4ccc(CNCCC#N)cc4)nc3)c2n1 [Ib-16] | – |
| 0.83 nM | 5.11 nM | CCCCOc1nc(N)c2nc(O)n(Cc3ccc(Oc4ccc(CNC5CC5)cc4)nc3)c2n1 [Ib-17] | – |
| – | 10.1 nM | CCCCOc1nc(N)c2nc(O)n(Cc3ccc(Oc4cccc(CNCC(C)C)n4)cc3)c2n1 [Ic-01] | – |
| – | 16.1 nM | CCCCOc1nc(N)c2nc(O)n(Cc3ccc(Oc4cccc(CNC5CCC5)n4)cc3)c2n1 [Ic-02] | – |
| – | 78 nM | CCCCOc1nc(N)c2nc(O)n(Cc3ccc(Oc4cccc(CNC5COC5)n4)cc3)c2n1 [Ic-03] | – |
| 0.871 nM | 44.2 nM | CCCCOc1nc(N)c2nc(O)n(Cc3ccc(Oc4cccc(CNCCO)n4)cc3)c2n1 [Ic-05] | – |
| 2.82 nM | 28 nM | CCCCOc1nc(N)c2nc(O)n(Cc3ccc(Oc4cccc(CNCCOC)n4)cc3)c2n1 [Ic-06] | – |
| – | 133 nM | CCCCOc1nc(N)c2nc(O)n(Cc3ccc(Oc4cccc(CNCCC#N)n4)cc3)c2n1 [Ic-07] | – |
| – | 28 nM | CCCCOc1nc(N)c2nc(O)n(Cc3ccc(Oc4ccc(CNCC(C)C)nc4)nc3)c2n1 [Id-01] | – |
| – | 25 nM | CCCCOc1nc(N)c2nc(O)n(Cc3ccc(Oc4ccc(CNC5CCC5)nc4)nc3)c2n1 [Id-02] | – |
| – | 14 nM | CCCCOc1nc(N)c2nc(O)n(Cc3ccc(Oc4ccc(CNC5CCOCC5)nc4)nc3)c2n1 [Id-03] | – |
| – | 13 nM | CCCCOc1nc(N)c2nc(O)n(Cc3ccc(Oc4ccc(CNCCOC)nc4)nc3)c2n1 [Id-04] | – |
| – | 12 nM | CCCCOc1nc(N)c2nc(O)n(Cc3ccc(Oc4ccc(CNCCO)nc4)nc3)c2n1 [Id-05] | – |
| – | 100 nM | CCCCOc1nc(N)c2nc(O)n(Cc3ccc(Oc4ccc(CNCC(F)F)nc4)nc3)c2n1 [Id-06] | – |
| – | 15 nM | CCCCOc1nc(N)c2nc(O)n(Cc3ccc(Oc4ccc(CN5CCOCC5)nc4)nc3)c2n1 [Id-07] | – |
| – | 21 nM | CCCCOc1nc(N)c2nc(O)n(Cc3ccc(Oc4ccc(CN5CCN(C)CC5)nc4)nc3)c2n1 [Id-08] | – |
| – | 26 nM | CCCCOc1nc(N)c2nc(O)n(Cc3ccc(Oc4ccc(CNCC(C)C)cc4)c(F)c3)c2n1 [Ie-01] | – |

| EC50 (human TLR7) | EC50 (interleukin 6 (IL-6)) | SMILES | potency less than that of the corresponding purine-8-one compound, as measured by IFN-α induction (IFN-α) |
| --- | --- | --- | --- |
| – | 19 nM | CCCCOc1nc(N)c2nc(O)n(Cc3ccc(Oc4ccc(CNC5CCC5)cc4)c(F)c3)c2n1 [Ie-02] | – |
| – | 19 nM | CCCCOc1nc(N)c2nc(O)n(Cc3ccc(Oc4ccc(CN5CCC5)cc4)c(F)c3)c2n1 [Ie-03] | – |
| – | 460 nM | CCCCOc1nc(N)c2nc(O)n(Cc3ccc(Oc4ccc(CNCC(F)F)cc4)c(F)c3)c2n1 [Ie-04] | – |
| – | 24 nM | CCCCOc1nc(N)c2nc(O)n(Cc3ccc(Oc4ccc(CNCCOC)cc4)c(F)c3)c2n1 [Ie-05] | – |
| – | 29 nM | CCCCOc1nc(N)c2nc(O)n(Cc3ccc(Oc4ccc(CNCCO)cc4)c(F)c3)c2n1 [Ie-06] | – |
| 1.71 nM | 130 nM | CCCCOc1nc(N)c2nc(O)n(Cc3ccc(Oc4ccc(CNCCS(C)(=O)=O)cc4)c(F)c3)c2n1 [Ie-07] | – |
| – | 7.6 nM | CCCCOc1nc(N)c2nc(O)n(Cc3ccc(Oc4ccc(CNC5CCOCC5)cc4)c(F)c3)c2n1 [Ie-08] | – |
| – | 250 nM | CCCCOc1nc(N)c2nc(O)n(Cc3ccc(Oc4ccc(CN5CCOCC5)cc4)c(F)c3)c2n1 [Ie-09] | – |
| – | 75 nM | CCCCOc1nc(N)c2nc(O)n(Cc3ccc(Oc4ccc(CN5CCN(C)CC5)cc4)c(F)c3)c2n1 [Ie-10] | – |
| – | 24 nM | CCCCOc1nc(N)c2nc(O)n(Cc3ccc(Nc4ccc(CNCC(C)C)cc4)nc3)c2n1 [If-01] | – |
| – | 72 nM | CCCCOc1nc(N)c2nc(O)n(Cc3ccc(Nc4ccc(CNCCO)cc4)nc3)c2n1 [If-02] | – |
| – | 14 nM | CCCCOc1nc(N)c2nc(O)n(Cc3ccc(Nc4ccc(CNC5CCOCC5)cc4)nc3)c2n1 [If-03] | – |
| – | 2.5 nM | CCCCOc1nc(N)c2nc(O)n(Cc3ccc(Nc4ccc(CNC5CCC5)cc4)nc3)c2n1 [If-04] | – |
| – | 17 nM | CCCCOc1nc(N)c2nc(O)n(Cc3ccc(Nc4ccc(CNCC(F)F)cc4)nc3)c2n1 [If-05] | – |
| – | 3.8 nM | CCCCOc1nc(N)c2nc(O)n(Cc3ccc(Nc4ccc(CN5CCCC5)cc4)nc3)c2n1 [If-06] | – |
| – | 7.8 nM | CCCCOc1nc(N)c2nc(O)n(Cc3ccc(Nc4ccc(CNCC(C)(C)O)cc4)nc3)c2n1 [If-07] | – |
| – | 68 nM | CCCCOc1nc(N)c2nc(O)n(Cc3ccc(Nc4ccc(CNCCS(C)(=O)=O)cc4)nc3)c2n1 [If-09] | – |
| – | – | CCCCOc1nc(N)c2c(n1)N(Cc1cccc(CN3CCCC3)c1)CC(=O)N2 [Vesatolimod, vesatolimod] | 100 × |
